Common to all, as to assay: biochemical
Holding throughout (parameters): KINOMEscan active-site competition binding, percent of control (100 = no competition)
Holding throughout (conditions): competition binding, percent control

In one assay the target is LATS2 (Homo sapiens, UniProt Q9NRM7). From the text:
(§1) Given the potential for the use of LIMK inhibitors as cancer chemotherapeutics, a high-throughput drug discovery and medicinal chemistry program was undertaken. Details of the screening methodology and description of initial hit matter were described in [38]. […] Details of their chemical synthesis are described in Charles et al.. […] These and additional physiochemical parameters are in Supplemental Table 5. […] Kinases inhibited >25% to 50% have yellow circles, 51% to 75% have orange circles, and >76% have red circles. In each case, the size of the circle is proportional to percentage inhibition. LIMK1 and LIMK2 positions are indicated in blue. Illustration reproduced courtesy of Cell Signaling Technology, Inc. (www.cellsignal.com). B. CRT0105950 structure and kinome selectivity mapping as described above. C.

The target in the next assay is ULK1 (Homo sapiens, UniProt O75385).
Excerpt: as §1

For the next assay, the target named is EGFR (Homo sapiens, UniProt P00533).
Excerpt: as §1

Another assay has as its target GRK1 (Homo sapiens, UniProt Q15835).
Excerpt: as §1

In the next assay the target is TAOK1 (Homo sapiens, UniProt Q7L7X3).
Excerpt: as §1

The target in a further assay is TGFBR2 (Homo sapiens, UniProt P37173).
Excerpt: as §1

The target in a further assay is ACVR1B (Homo sapiens, UniProt P36896).
Excerpt: as §1

The target in the next assay is CDKL2 (Homo sapiens, UniProt Q92772).
Excerpt: as §1

The target in a further assay is SRMS (Homo sapiens, UniProt Q9H3Y6).
Excerpt: as §1

The target of the next assay is PIM2 (Homo sapiens, UniProt Q9P1W9).
Excerpt: as §1

A further assay addresses EGFR(G719C) (Homo sapiens, UniProt P00533, G719C).
Excerpt: as §1

Assay [1] deals with T1, ABL1(H396P)-nonphosphorylated (Homo sapiens, UniProt P00519, H396P).
T1 construct: nonphosphorylated
Excerpt: as §1

The next assay has as its target CDK3 (Homo sapiens, UniProt Q00526).
Excerpt: as §1

A further assay deals with T2, p38-beta (Homo sapiens, UniProt Q15759).
T2 construct: gene MAPK11
Excerpt: as §1

Another assay concerns the target FLT3(ITD) (Homo sapiens, UniProt P36888, ITD).
Excerpt: as §1

The target in another assay is TSSK1B (Homo sapiens, UniProt Q9BXA7).
Excerpt: as §1

The target of a further assay is INSR (Homo sapiens, UniProt P06213).
Excerpt: as §1

The target of a further assay is T3, DCAMKL2 (Homo sapiens, UniProt Q8N568).
T3 construct: gene DCLK2
Excerpt: as §1

Another assay addresses T4, PIP5K2B (Homo sapiens, UniProt P78356).
T4 construct: gene PIP4K2B
Excerpt: as §1

The target of a further assay is ACVR2B (Homo sapiens, UniProt Q13705).
Excerpt: as §1

Another assay has as its target SLK (Homo sapiens, UniProt Q9H2G2).
Excerpt: as §1

The target in a further assay is RIOK2 (Homo sapiens, UniProt Q9BVS4).
Excerpt: as §1

The target of a further assay is T5, JNK2 (Homo sapiens, UniProt P45984).
T5 construct: gene MAPK9
Excerpt: as §1

SMILES strings stand for the structures.

T4 sequence (P78356 whole entry): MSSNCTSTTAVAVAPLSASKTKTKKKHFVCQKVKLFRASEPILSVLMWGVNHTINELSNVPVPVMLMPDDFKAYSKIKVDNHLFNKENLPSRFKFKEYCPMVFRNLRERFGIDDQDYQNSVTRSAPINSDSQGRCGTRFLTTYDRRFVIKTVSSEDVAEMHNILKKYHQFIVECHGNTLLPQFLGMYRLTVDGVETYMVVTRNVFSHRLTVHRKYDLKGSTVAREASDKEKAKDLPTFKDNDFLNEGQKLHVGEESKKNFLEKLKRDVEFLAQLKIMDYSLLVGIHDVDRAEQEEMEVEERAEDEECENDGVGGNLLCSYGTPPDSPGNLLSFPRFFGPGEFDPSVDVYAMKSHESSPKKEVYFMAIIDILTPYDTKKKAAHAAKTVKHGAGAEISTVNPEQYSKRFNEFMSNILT
SRMS, sequence (Q9H3Y6 whole entry): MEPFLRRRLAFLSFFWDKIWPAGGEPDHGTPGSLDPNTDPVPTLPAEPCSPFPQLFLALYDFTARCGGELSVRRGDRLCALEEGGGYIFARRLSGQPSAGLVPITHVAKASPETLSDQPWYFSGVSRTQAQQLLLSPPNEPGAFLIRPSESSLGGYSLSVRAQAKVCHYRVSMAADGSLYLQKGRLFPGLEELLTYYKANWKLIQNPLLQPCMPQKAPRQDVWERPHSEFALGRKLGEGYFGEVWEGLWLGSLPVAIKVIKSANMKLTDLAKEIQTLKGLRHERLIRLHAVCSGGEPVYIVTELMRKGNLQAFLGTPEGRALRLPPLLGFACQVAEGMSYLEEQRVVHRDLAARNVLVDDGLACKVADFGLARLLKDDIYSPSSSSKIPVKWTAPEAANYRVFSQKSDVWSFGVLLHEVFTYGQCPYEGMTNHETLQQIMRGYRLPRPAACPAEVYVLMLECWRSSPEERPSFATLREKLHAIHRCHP
ACVR1B, sequence (P36896 whole entry): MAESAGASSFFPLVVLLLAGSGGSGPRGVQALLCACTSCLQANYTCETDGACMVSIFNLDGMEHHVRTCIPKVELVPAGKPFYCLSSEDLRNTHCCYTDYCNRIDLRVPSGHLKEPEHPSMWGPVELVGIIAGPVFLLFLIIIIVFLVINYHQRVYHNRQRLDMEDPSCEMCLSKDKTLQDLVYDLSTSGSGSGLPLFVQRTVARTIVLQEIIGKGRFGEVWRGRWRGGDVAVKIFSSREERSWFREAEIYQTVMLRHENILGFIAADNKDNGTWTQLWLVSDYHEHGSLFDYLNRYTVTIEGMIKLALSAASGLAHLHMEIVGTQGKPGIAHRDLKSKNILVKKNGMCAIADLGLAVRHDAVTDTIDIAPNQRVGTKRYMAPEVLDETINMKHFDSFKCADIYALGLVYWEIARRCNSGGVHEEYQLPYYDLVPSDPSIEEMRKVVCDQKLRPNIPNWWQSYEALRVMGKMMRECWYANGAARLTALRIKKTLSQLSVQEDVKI
RIOK2, sequence (Q9BVS4 whole entry): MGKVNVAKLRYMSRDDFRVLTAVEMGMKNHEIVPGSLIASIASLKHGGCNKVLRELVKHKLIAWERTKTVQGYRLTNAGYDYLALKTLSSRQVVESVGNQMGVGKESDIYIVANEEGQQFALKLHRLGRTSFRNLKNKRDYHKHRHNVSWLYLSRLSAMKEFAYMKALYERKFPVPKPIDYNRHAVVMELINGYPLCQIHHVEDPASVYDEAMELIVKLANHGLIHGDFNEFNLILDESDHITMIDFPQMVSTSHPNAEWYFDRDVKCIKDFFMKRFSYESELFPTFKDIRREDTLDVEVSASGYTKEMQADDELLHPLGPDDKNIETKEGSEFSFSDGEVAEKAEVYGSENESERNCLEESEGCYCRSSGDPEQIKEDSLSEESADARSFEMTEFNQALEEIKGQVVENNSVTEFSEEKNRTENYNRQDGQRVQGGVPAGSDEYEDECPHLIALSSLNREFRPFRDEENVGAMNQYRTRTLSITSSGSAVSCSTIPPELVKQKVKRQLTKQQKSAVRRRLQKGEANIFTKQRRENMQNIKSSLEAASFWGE
EGFR(G719C), sequence (P00533 whole entry G719C): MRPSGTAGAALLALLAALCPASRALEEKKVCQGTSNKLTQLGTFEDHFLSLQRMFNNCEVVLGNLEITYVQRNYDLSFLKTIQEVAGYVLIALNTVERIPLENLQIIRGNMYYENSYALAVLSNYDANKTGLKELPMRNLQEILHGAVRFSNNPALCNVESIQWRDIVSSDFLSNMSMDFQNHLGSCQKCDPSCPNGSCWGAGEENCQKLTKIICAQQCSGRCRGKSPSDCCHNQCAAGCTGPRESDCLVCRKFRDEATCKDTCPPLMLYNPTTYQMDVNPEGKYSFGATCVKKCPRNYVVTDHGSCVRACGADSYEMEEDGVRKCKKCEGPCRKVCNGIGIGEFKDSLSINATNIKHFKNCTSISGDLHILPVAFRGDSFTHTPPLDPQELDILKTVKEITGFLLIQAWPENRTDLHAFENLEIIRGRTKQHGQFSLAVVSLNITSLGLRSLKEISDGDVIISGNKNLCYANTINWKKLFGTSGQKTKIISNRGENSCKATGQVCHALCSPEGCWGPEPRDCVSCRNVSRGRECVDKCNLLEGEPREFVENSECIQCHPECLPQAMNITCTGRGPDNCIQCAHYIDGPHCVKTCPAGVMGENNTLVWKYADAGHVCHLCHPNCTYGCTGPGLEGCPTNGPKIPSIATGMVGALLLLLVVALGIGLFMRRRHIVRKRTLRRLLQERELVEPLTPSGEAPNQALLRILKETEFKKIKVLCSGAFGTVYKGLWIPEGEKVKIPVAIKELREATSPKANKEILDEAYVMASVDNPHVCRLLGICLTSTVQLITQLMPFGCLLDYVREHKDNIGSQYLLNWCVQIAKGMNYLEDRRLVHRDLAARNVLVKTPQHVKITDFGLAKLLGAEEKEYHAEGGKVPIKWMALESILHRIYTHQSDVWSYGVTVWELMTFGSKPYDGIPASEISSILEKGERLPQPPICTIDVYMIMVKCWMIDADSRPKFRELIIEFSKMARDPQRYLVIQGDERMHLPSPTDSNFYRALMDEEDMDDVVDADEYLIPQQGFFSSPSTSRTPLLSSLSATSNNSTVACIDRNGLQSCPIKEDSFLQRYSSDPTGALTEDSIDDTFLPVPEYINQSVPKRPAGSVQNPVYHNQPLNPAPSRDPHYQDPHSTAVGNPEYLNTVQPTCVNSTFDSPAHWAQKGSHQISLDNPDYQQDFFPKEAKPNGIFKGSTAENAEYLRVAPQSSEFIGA
T2 sequence (Q15759 whole entry): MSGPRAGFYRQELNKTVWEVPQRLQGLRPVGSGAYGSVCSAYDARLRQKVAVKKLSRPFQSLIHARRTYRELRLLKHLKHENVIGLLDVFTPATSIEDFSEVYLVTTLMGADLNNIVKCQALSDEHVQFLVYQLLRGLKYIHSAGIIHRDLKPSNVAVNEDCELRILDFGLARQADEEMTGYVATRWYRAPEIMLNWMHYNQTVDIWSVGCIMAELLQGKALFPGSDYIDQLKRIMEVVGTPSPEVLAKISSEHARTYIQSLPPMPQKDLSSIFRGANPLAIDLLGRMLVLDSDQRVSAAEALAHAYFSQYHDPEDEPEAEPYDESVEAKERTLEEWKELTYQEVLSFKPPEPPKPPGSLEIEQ
FLT3(ITD), sequence (P36888 564-993, change not shown): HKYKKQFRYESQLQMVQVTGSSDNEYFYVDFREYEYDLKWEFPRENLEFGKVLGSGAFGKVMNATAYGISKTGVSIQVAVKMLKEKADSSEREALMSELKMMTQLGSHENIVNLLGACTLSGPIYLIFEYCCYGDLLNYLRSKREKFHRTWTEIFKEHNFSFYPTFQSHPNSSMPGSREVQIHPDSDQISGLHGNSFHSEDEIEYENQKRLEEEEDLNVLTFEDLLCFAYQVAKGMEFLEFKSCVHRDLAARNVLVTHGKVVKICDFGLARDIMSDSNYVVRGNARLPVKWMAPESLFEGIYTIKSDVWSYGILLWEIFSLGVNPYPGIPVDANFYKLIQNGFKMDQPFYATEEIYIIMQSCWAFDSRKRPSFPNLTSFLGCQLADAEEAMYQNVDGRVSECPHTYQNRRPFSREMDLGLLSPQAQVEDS
TSSK1B, sequence (Q9BXA7 whole entry): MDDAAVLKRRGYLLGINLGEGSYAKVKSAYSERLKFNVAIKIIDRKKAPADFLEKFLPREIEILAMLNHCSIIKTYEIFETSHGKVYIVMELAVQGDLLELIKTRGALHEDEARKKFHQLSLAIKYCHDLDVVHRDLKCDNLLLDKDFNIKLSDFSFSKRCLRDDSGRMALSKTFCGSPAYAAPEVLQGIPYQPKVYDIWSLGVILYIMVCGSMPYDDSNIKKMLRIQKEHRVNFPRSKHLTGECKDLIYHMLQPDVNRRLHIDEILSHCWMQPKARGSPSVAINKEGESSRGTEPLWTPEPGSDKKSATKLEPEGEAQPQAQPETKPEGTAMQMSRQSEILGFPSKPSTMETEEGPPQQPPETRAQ
T5 sequence (P45984 whole entry): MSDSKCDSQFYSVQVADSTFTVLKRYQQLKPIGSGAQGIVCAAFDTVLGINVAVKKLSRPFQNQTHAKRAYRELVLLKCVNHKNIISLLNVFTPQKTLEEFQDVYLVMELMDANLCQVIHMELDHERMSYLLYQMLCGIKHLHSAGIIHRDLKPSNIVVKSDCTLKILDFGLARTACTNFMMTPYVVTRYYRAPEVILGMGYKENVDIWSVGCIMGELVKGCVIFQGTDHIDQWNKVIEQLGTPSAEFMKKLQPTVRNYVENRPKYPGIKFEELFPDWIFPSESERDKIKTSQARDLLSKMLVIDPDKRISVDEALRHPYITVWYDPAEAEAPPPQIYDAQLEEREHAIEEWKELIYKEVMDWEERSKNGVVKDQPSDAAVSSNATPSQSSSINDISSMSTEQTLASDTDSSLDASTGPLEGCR

Consider `COc1ccc(-c2cnccc2-c2cnc(NC(=O)C(C)C)s2)c(C(F)(F)F)c1` [CRT0105446, N-{5-[3-(4-Methoxy-2-trifluoromethyl-phenyl)-pyridin-4-yl]-hiazol-2-yl}-isobutyramide], for which the remaining binding at 10 µM on LATS2 is 90%; at ULK1, 100%; at EGFR, 100%; at GRK1 it was 70%; at TAOK1, 93%; at TGFBR2 it was 94%. In addition, the remaining binding at 10 µM on ACVR1B stood at 82%; at CDKL2, 2.2%; at SRMS it was 93%; on PIM2, 100%; at EGFR(G719C), 89%; in [1], 71%. The remaining binding at 10 µM on CDK3 is 24%; on p38-beta, 100%; at FLT3(ITD) it was 79%; on TSSK1B, 80%; at INSR it was 100%; on DCAMKL2, 39%. The remaining binding at 10 µM on PIP5K2B amounted to 100%; on ACVR2B, 100%; on SLK it was 100%; on RIOK2, 16%; on JNK2, 50%.

With `Cc1ccc(-c2cnccc2-c2cnc(Nc3ccc(O)cc3)s2)c(Cl)c1` [CRT0105950, 4-{5-[3-(2-Chloro-4-methyl-phenyl)-pyridin-4-yl]-thiazol-2-ylamino}-phenol], the remaining binding at 10 µM amounted to 6% at LATS2; 38% on ULK1; 53% at EGFR; 59% at GRK1; 17% on TAOK1; 18% at TGFBR2. Also, the remaining binding at 10 µM at ACVR1B is 76%; on CDKL2, 0.6%; at SRMS, 87%; at PIM2 it was 100%; at EGFR(G719C) it was 71%; in assay [1], 27%. Besides, the remaining binding at 10 µM stood at 7.7% at CDK3; 93% on p38-beta; 4.4% at FLT3(ITD); 100% on TSSK1B; 1% at INSR; 77% at DCAMKL2. The remaining binding at 10 µM on PIP5K2B amounted to 44%; at ACVR2B, 32%; at SLK, 95%; at RIOK2, 2%; on JNK2, 30%.
